Patent publication US20160237067A1, “SUBSTITUTED PHENYLALANINE DERIVATIVES” (BAYER PHARMA AKTIENGESELLSCHAFT, priority 2013, published 2016)
Where a name gives a salt, the structure may show the parent alone.

What was measured:
human factor XIa = target: T1, human factor XIa (Homo sapiens, UniProt P03951); assay: Measurement of FXIa inhibition (fluorogenic peptide substrate Boc-Glu(OBzl)-Ala-Arg-AMC); type: biochemical; details: factor XIa from Kordia 0.45 nM; 15 min preincubation; 30 min at 22° C.
T1 construct: purchased Kordia
T1 sequence (P03951 388-625 limits assumed): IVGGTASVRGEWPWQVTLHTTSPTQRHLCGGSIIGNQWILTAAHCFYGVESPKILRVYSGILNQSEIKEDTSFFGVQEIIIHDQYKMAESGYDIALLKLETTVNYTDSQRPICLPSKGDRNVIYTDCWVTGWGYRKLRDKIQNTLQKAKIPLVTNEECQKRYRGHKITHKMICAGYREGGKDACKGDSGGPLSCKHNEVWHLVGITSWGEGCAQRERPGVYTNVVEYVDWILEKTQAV
T1 sequence (P03951 19-387 partner limits assumed): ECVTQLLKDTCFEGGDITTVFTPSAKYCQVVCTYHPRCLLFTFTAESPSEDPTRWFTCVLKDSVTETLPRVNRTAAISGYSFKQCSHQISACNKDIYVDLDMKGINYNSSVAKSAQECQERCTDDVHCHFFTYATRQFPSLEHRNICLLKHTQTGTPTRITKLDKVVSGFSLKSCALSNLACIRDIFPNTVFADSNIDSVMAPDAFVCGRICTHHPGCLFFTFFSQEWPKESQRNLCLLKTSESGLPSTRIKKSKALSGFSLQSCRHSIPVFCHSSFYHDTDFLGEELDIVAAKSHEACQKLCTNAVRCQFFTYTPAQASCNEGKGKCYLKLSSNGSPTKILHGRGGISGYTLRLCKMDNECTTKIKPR
Method: The factor XIa inhibition of the substances according to the invention is determined using a biochemical test system which utilizes the reaction of a peptidic factor XIa substrate to determine the enzymatic activity of human factor XIa. Here, factor XIa cleaves from the peptic factor XIa substrate the C-terminal aminomethylcoumarin (AMC), the fluorescence of which is measured. The determinations are carried out in microtitre plates.
Test substances are dissolved in dimethyl sulphoxide and serially diluted in dimethyl sulphoxide (3000 μM to 0.0078 μM; resulting final concentrations in the test: 50 μM to 0.00013 μM). In each case 1 μl of the diluted substance solutions is placed into the wells of white microtitre plates from Greiner (384 wells). Subsequently, the following are added successively: 20 μl of assay buffer (50 mmol/l Tris buffer pH 7.4; 100 mmol/l sodium chloride; 5 mmol/l calcium chloride; 0.1% bovine serum albumin) and 20 μl of factor XIa from Kordia (0.45 nM in assay buffer). After 15 min of incubation, the enzyme reaction is started by addition of 20 μl of the factor XIa substrate Boc-Glu(OBzl)-Ala-Arg-AMC dissolved in assay buffer (10 μM in assay buffer) from Bachem, the mixture is incubated at room temperature (22° C.) for 30 min and fluorescence is then measured (excitation: 360 nm, emission: 460 nm). The measured emissions of the test batches with test substance are compared to those of control batches without test substance (only dimethyl sulphoxide instead of test substance in dimethyl sulphoxide), and IC50 values are calculated from the concentration/activity relationships.

human and animal plasma = assay: Determination of anticoagulatory activity: activated partial thromboplastin time (aPTT) in plasma; type: biochemical; details: C.K. Prest kit, 37° C., 3 minutes incubation, plasma species of Table B not stated
Method: The anticoagulatory activity of the test substances is determined in vitro in human and animal plasma (for example mouse, rat, rabbit, pig and dog plasma). To this end, blood is drawn off in a mixing ratio of sodium citrate/blood of 1:9 using a 0.11 molar sodium citrate solution as receiver. Immediately after the blood has been drawn off, it is mixed thoroughly and centrifuged at about 4000 g for 15 minutes. The supernatant is pipetted off.
The activated partial thromboplastin time (aPTT) is determined in the presence of varying concentrations of test substance or the corresponding solvent using a commercial test kit (C.K. Prest from Diagnostica Stago). The test compounds are incubated with the plasma and the PTT reagent (cephalin, kaolin) at 37° C. for 3 minutes. Coagulation is then started by addition of a 25 mM aqueous calcium chloride solution, and the time when coagulation occurs is determined. The concentration of test substance which brings about a 1.5-fold extension of the aPTT is determined Activity data from this test are listed in Table B below: […]

SMILES | IC50 (human factor XIa) [nM] | aPTT (concentration of test substance which brings about a 1.5-fold extension of the aPTT) (human and animal plasma) [µmol/L]
NC[C@H]1CC[C@H](C(=O)N[C@@H](Cc2ccc(-c3cccc(C(=O)NC4CCNCC4)c3F)cc2)C(=O)Nc2ccc(-c3nn[nH]n3)cc2)CC1 [Example 15, 4′-[(2S)-2-({[trans-4-(Aminomethyl)cyclohexyl]carbonyl}amino)-3-oxo-3-{[4-(2H-tetrazol-5-yl)phenyl]amino}propyl]-2-fluoro-N-(piperidin-4-yl)biphenyl-3-carboxamide hydrochloride] | 10 | 0.52
NC[C@H]1CC[C@H](C(=O)N[C@@H](Cc2ccc(-c3cccc(C(=O)N4CCNCC4)c3F)cc2)C(=O)Nc2ccc(-c3nn[nH]n3)cc2)CC1 [Example 18, trans-4-(Aminomethyl)-N-[(2S)-3-[2′-fluoro-3′-(piperazin-1-ylcarbonyl)biphenyl-4-yl]-1-oxo-1-{[4-(2H-tetrazol-5-yl)phenyl]amino}propan-2-yl]cyclohexanecarboxamide hydrochloride] | 16 | 0.35
NC[C@H]1CC[C@H](C(=O)N[C@@H](Cc2ccc(-c3cccc(C(=O)N4CCOCC4)c3)cc2)C(=O)Nc2ccc(-c3nn[nH]n3)cc2)CC1 [Example 20, trans-4-(Aminomethyl)-N-[(2S)-3-[3′-(morpholin-4-ylcarbonyl)biphenyl-4-yl]-1-oxo-1-{[4-(2H-tetrazol-5-yl)phenyl]amino}propan-2-yl]cyclohexanecarboxamide hydrochloride] | 2.7 | 0.39
Cc1ccc(-c2ccc(C[C@H](NC(=O)[C@H]3CC[C@H](CN)CC3)C(=O)Nc3ccc(-c4nn[nH]n4)cc3)cc2)cc1NC(=O)C1CCNCC1 [Example 22, N-{4[(2S)-2-({[trans-4-(Aminomethyl)cyclohexyl]carbonyl}amino)-3-oxo-3-{[4-(2H-tetrazol-5-yl)phenyl]amino}propyl]-4-methylbiphenyl-3-yl}piperidine-4-carboxamide hydrochloride] | 25 | 0.34
COc1ccc(-c2ccc(C[C@H](NC(=O)[C@H]3CC[C@H](CN)CC3)C(=O)Nc3ccc(-c4nnn[nH]4)cc3)cc2)cc1S(=O)(=O)N1CCOCC1 [Example 24, trans-4-(Aminomethyl)-N-[(2S)-3-[4′-methoxy-3′-(morpholin-4-ylsulphonyl)biphenyl-4-yl]-1-oxo-1-{[4-(1H-tetrazol-5-yl)phenyl]amino}propan-2-yl]cyclohexanecarboxamide hydrochloride] | 2 | 0.09
Cc1ccc(S(=O)(=O)N(C)C)cc1-c1ccc(C[C@H](NC(=O)[C@H]2CC[C@H](CN)CC2)C(=O)Nc2ccc3[nH]c(=O)[nH]c3c2)cc1 [Example 25, trans-4-(Aminomethyl)-N-{(2S)-3-[5′-(dimethylsulphamoyl)-2′-methylbiphenyl-4-yl]-1-oxo-1-[(2-oxo-2,3-dihydro-1H-benzimidazol-5-yl)amino]propan-2-yl}cyclohexanecarboxamide hydrochloride] | 6.1 | 0.15
Cc1ccc(S(=O)(=O)N2CCOCC2)cc1-c1ccc(C[C@H](NC(=O)[C@H]2CC[C@H](CN)CC2)C(=O)Nc2ccc3[nH]c(=O)[nH]c3c2)cc1 [Example 26, trans-4-(Aminomethyl)-N-{(2S)-3-[2′-methyl-5′-(morpholin-4-ylsulphonyl)biphenyl-4-yl]-1-oxo-1-[(2-oxo-2,3-dihydro-1H-benzimidazol-5-yl)amino]propan-2-yl}cyclohexanecarboxamide hydrochloride] | 6.1 | 0.18
NC[C@H]1CC[C@H](C(=O)N[C@@H](Cc2ccc(-c3cccc(C(=O)NCCN4CCOCC4)c3)cc2)C(=O)Nc2ccc(-c3nnn[nH]3)cc2)CC1 [Example 27, 4′-[(2S)-2-({[trans-4-(Aminomethyl)cyclohexyl]carbonyl}amino)-3-oxo-3-{[4-(1H-tetrazol-5-yl)phenyl]amino}propyl]-N-[2-(morpholin-4-yl)ethyl]biphenyl-3-carboxamide hydrochloride] | 6 | 0.19

Now from value to compound, other results behind:

IC50 (human factor XIa) [nM] | SMILES | aPTT (concentration of test substance which brings about a 1.5-fold extension of the aPTT) (human and animal plasma) [µmol/L]
9 | CCN(CC)CCNC(=O)c1cccc(-c2ccc(C[C@H](NC(=O)[C@H]3CC[C@H](CN)CC3)C(=O)Nc3ccc(-c4nn[nH]n4)cc3)cc2)c1F [Example 16, 4′-[(2S)-2-({[trans-4-(Aminomethyl)cyclohexyl]carbonyl}amino)-3-oxo-3-{[4-(2H-tetrazol-5-yl)phenyl]amino}propyl]-N-[2-(diethylamino)ethyl]-2-fluorobiphenyl-3-carboxamide hydrochloride] | 0.2
9.3 | NC[C@H]1CC[C@H](C(=O)N[C@@H](Cc2ccc(-c3cccc(C(=O)N[C@@H]4CCNC4)c3F)cc2)C(=O)Nc2ccc(-c3nn[nH]n3)cc2)CC1 [Example 17, 4′-[(2S)-2-({[trans-4-(Aminomethyl)cyclohexyl]carbonyl}amino)-3-oxo-3-{[4-(2H-tetrazol-5-yl)phenyl]amino}propyl]-2-fluoro-N-[(3R)-pyrrolidin-3-yl]biphenyl-3-carboxamide hydrochloride] | 0.58
6.4 | CCN(CC)CCCNC(=O)c1ccc(C)c(-c2ccc(C[C@H](NC(=O)[C@H]3CC[C@H](CN)CC3)C(=O)Nc3ccc(-c4nn[nH]n4)cc3)cc2)c1 [Example 19, 4′-[(2S)-2-({[trans-4-(Aminomethyl)cyclohexyl]carbonyl}amino)-3-oxo-3-{[4-(2H-tetrazol-5-yl)phenyl]amino}propyl]-N-[3-(diethylamino)propyl]-6-methylbiphenyl-3-carboxamide hydrochloride] | 0.26
8.3 | Cc1ccc(C#N)cc1-c1ccc(C[C@H](NC(=O)[C@H]2CC[C@H](CN)CC2)C(=O)Nc2ccc(-c3nn[nH]n3)cc2)cc1 [Example 21, trans-4-(Aminomethyl)-N-[(2S)-3-(5′-cyano-2′-methylbiphenyl-4-yl)-1-oxo-1-{[4-(2H-tetrazol-5-yl)phenyl]amino}propan-2-yl]cyclohexanecarboxamide hydrochloride] | 0.22
13 | CCc1ccc(C(=O)NCCN(CC)CC)cc1-c1ccc(C[C@H](NC(=O)[C@H]2CC[C@H](CN)CC2)C(=O)Nc2ccc(-c3nn[nH]n3)cc2)cc1 [Example 23, 4′-[(2S)-2-({[trans-4-(Aminomethyl)cyclohexyl]carbonyl}amino)-3-oxo-3-{[4-(2H-tetrazol-5-yl)phenyl]amino}propyl]-N-[2-(diethylamino)ethyl]-6-ethylbiphenyl-3-carboxamide hydrochloride] | 0.36
1.5 | Cc1ccc(N(C)C)cc1-c1ccc(C[C@H](NC(=O)[C@H]2CC[C@H](CN)CC2)C(=O)Nc2ccc(-c3nnn[nH]3)cc2)cc1 [Example 28, trans-4-(Aminomethyl)-N-[(2S)-3-[5′-(dimethylamino)-2′-methylbiphenyl-4-yl]-1-oxo-1-{[4-(1H-tetrazol-5-yl)phenyl]amino}propan-2-yl]cyclohexanecarboxamide hydrochloride] | 0.26
11 | Cc1ccc(-c2ccc(C[C@H](NC(=O)[C@H]3CC[C@H](CN)CC3)C(=O)Nc3ccc(-c4nn[nH]n4)cc3)cc2)cc1NC(=O)C1CCOCC1 [Example 29, N-{4′-[(2S)-2-({[trans-4-(Aminomethyl)cyclohexyl]carbonyl}amino)-3-oxo-3-{[4-(2H-tetrazol-5-yl)phenyl]amino}propyl]-4-methylbiphenyl-3-yl}tetrahydro-2H-pyran-4-carboxamide hydrochloride] | 0.3
